Marks after values point to notes of the source that are not given here.
How the values were obtained:
Type in all cases: in vivo
[1] = test system: Puccinia recondite f. sp. tritici (the causal agent of wheat leaf rust); experiment: Test A: wheat leaf rust, preventive spray on wheat seedlings, visual disease rating; conditions: wheat leaf rust, preventive spray on wheat seedlings
In short: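 Wheat seedlings were sprayed to run-off with compound suspended in acetone/water containing 250 ppm Trem 014 (200 ppm ≈ 800 g/ha; some at 40 ppm). Puccinia recondite spores were inoculated the next day. Plants were held 24 h saturated at 20° C, then 7 days at 20° C, and disease control was rated visually on a 0–100 scale against controls.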

[2] = test system: Septoria tritici (the causal agent of wheat leaf blotch); experiment: Test B: wheat leaf blotch, preventive spray on wheat seedlings, visual disease rating; conditions: wheat leaf blotch, preventive spray on wheat seedlings
In short: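 Wheat seedlings sprayed to run-off with compound suspension (acetone/water with 250 ppm Trem 014; 200 ppm ≈ 800 g/ha, some at 40 ppm), inoculated next day with Septoria tritici spores. 48 h saturated humidity at 24 °C, then 19 days at 20 °C; visual rating, 100 = full control.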

[3] = test system: Botrytis cinerea (the causal agent of tomato Botrytis); experiment: Test C: tomato Botrytis, preventive spray on tomato seedlings, visual disease rating; conditions: tomato Botrytis, preventive spray on tomato seedlings
In short: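 Test suspension (acetone/water with 250 ppm Trem 014; 200 ppm equivalent to 800 g/ha) sprayed to run-off on tomato seedlings; B. cinerea spores inoculated next day. After 48 h saturated humidity at 20° C then 3 days at 24° C, disease rated visually as % control relative to untreated controls (0–100).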

[4] = test system: Blumeria graminis f. sp. tritici (also known as Erysiphe graminis f. sp. tritici, the causal agent of wheat powdery mildew); experiment: Test D: wheat powdery mildew, preventive spray on wheat seedlings, visual disease rating; conditions: wheat powdery mildew, preventive spray on wheat seedlings
In short: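 Compound suspended in acetone/water (50/50) with 250 ppm Trem 014 and sprayed to run-off on wheat seedlings (200 ppm ≈ 800 g/ha), then inoculated next day with spore dust. Disease rated visually after 8 days at 20 °C as % control relative to untreated plants (0-100).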

[5] = asterisk: 40 ppm test suspension
[6] = no asterisk (standard test suspension concentration, not 40 ppm)

| Compound | Test A rating (100 = 100% disease control, 0 = no disease control relative to the controls) [1, 5] | Test B rating (100 = 100% disease control, 0 = no disease control relative to the controls) [2, 5] | Test C rating (100 = 100% disease control, 0 = no disease control relative to the controls) [3, 5] | Test D rating (100 = 100% disease control, 0 = no disease control relative to the controls) [4, 5] | Test A rating (100 = 100% disease control, 0 = no disease control relative to the controls) [1, 6] | Test B rating (100 = 100% disease control, 0 = no disease control relative to the controls) [2, 6] | Test C rating (100 = 100% disease control, 0 = no disease control relative to the controls) [3, 6] | Test D rating (100 = 100% disease control, 0 = no disease control relative to the controls) [4, 6] |
| --- | --- | --- | --- | --- | --- | --- | --- | --- |
| Cc1nc(Br)c(C(O)c2ccc(Cl)cc2F)n1-c1c(F)cccc1F (stereo not shown) [compound 179] | 68* % | 100* % | 78* % | 43* % |  |  |  |  |
| Cc1nc(Cl)c(C(O)c2ccc(C#N)cc2F)n1-c1c(F)cccc1F (stereo not shown) [compound 180] | 0* % | 48* % | 0* % | 0* % |  |  |  |  |
| Cc1ncc(C(O)c2cccnc2)n1-c1c(F)cc(F)cc1F (stereo not shown) [compound 181] |  |  |  |  | 0% | 1% | 0% | 0% |
| Cc1nc(Br)c(C(O)c2cccnc2)n1-c1c(F)cc(F)cc1F (stereo not shown) [compound 182] |  |  |  |  | 68% | 100% | 0% | 21% |
| COc1cc(F)c(-n2c(C)nc(Cl)c2C(O)c2ccc(F)cc2C)c(F)c1 (stereo not shown) [compound 183] | 86* % | 100* % | 8* % | 0* % |  |  |  |  |
| Cc1cc(F)ccc1C(O)c1c(Br)nc(C)n1-c1c(F)cccc1Cl (stereo not shown) [compound 186] | 99* % | 100* % | 99* % | 97* % |  |  |  |  |
| Cc1nc(Br)c(C(O)c2ccc(F)cc2Cl)n1-c1c(F)cccc1Cl (stereo not shown) [compound 188] | 100* % | 100* % | 99* % | 99* % |  |  |  |  |
| Cc1ncc(C(O)c2ccc(F)cc2Cl)n1-c1ccc(F)cc1Br (stereo not shown) [compound 189] |  |  |  |  | 100% | 100% | 99% | 27% |
| Cc1nc(Br)c(C(O)c2ccc(F)cc2Cl)n1-c1ccc(F)cc1Br (stereo not shown) [compound 190] |  |  |  |  | 100% | 100% | 99% | 0% |
| Cc1ccc(C(O)c2c(Cl)nc(C)n2-c2c(F)cccc2F)c(C)c1 (stereo not shown) [compound 191] | 100* % | 100* % | 80* % | 99* % |  |  |  |  |
| COc1cc(F)c(C(O)c2c(Cl)nc(C)n2-c2c(F)cccc2F)c(F)c1 (stereo not shown) [compound 192] | 100* % | 100* % | 100* % | 53* % |  |  |  |  |
| Cc1nc(Cl)c(C(O)c2c(Cl)cccc2Cl)n1-c1c(F)cccc1F (stereo not shown) [compound 193] | 99* % | 100* % | 59* % | 0* % |  |  |  |  |
| Cc1nc(Br)c(C(O)c2c(Cl)cccc2Cl)n1-c1c(F)cccc1F (stereo not shown) [compound 194] | 99* % | 100* % | 77* % | 0* % |  |  |  |  |
